Legend:
[1] = tested on: poly(dAdT)2 (DNA, polymer) AT; experiment: ITC, two sets of sites fit; conditions: Na+ (sodium cacodylate, I = 0.05 M); pH 5, 25 °C; site 1 of 2; polynucleotide concentration in phosphates; per base
[2] = tested on: poly(rA)–poly(rU) (RNA, polymer) A/U; experiment: ITC, single set of sites fit; conditions: Na+ (sodium cacodylate, I = 0.05 M); pH 5, 25 °C; polynucleotide concentration in phosphates; per base
[3] = tested on: poly(dAdT)2 (DNA, polymer) AT; experiment: UV thermal denaturation, 260 nm; conditions: Na+ (sodium cacodylate, I = 0.05 M); pH 5; r = [4]/[polynucleotide] = 0.1; per base
[4] = tested on: poly(dAdT)2 (DNA, polymer) AT; experiment: UV-vis titration, Scatchard fit; conditions: Na+ (sodium cacodylate, I = 0.05 M); pH 5, 25 °C; n fixed at 0.2; polynucleotide concentration in phosphates; per base
[5] = tested on: poly(dGdC)2 (DNA, polymer) GC; experiment: UV-vis titration, Scatchard fit; conditions: Na+ (sodium cacodylate, I = 0.05 M); pH 5, 25 °C; n fixed at 0.2; polynucleotide concentration in phosphates; per base
[6] = tested on: poly(dA)–poly(dT) (DNA, polymer) A/T; experiment: UV thermal denaturation, 260 nm; conditions: Na+ (sodium cacodylate, I = 0.05 M); pH 5; r = [4]/[polynucleotide] = 0.1; per base
[7] = tested on: poly(dA)–poly(dT) (DNA, polymer) A/T; experiment: UV-vis titration, Scatchard fit; conditions: Na+ (sodium cacodylate, I = 0.05 M); pH 5, 25 °C; n fixed at 0.2; polynucleotide concentration in phosphates; per base
[8] = tested on: poly(rA)–poly(rU) (RNA, polymer) A/U; experiment: UV thermal denaturation, 260 nm; conditions: Na+ (sodium cacodylate, I = 0.05 M); pH 5; r = [4]/[polynucleotide] = 0.2; per base
[9] = tested on: poly(rA)–poly(rU) (RNA, polymer) A/U; experiment: UV-vis titration, Scatchard fit; conditions: Na+ (sodium cacodylate, I = 0.05 M); pH 7, 25 °C; n fixed at 0.2; concentration in phosphates; log Ka 6.0 at pH 5; per base

N=C(N)NC(=O)c1ccc(C(=O)NCCCC[C@H](N)C(=O)NCCN2C(=O)c3ccc4c5c(ccc(c35)C2=O)C(=O)N(CCNC(=O)[C@@H](N)CCCCNC(=O)c2ccc(C(=O)NC(=N)N)[nH]2)C4=O)[nH]1
log Ka1 [1]: 6.7
log Ka1 [2]: 6.9
∆Tm [3]: 10.0 ± 0.5 °C
log Ka [4]: 5.8
log Ka [5]: 7.2
∆Tm [6]: 10.5 ± 0.5 °C
log Ka [7]: 6.4
∆Tm [8]: 6.8 ± 0.5 °C
log Ka [9]: 4.5
